# Experimental data as given in patent US20030149242A1, “Novel polypeptide” (Pfizer Inc., priority 1999, published 2003).
# Legend:
# PFI-013 [1] = target: T1, PFI-013 (Homo sapiens, UniProt Q9H3N8); test: FLIPR functional cell-based assay (intracellular calcium) in PFI-013-transfected HEK293 cells expressing mouse Gα15; parameters: expressed in transfected cells; host or cells: HEK293 cells expressing mouse Gα15, transient transfection; settings: for activation of PFI-013 by histaminergic compounds: FIG. 8, rank order of potency N-α-methyl histamine > histamine > R-α-methyl histamine = histamine-1-methyl
# T1 sequence (Q9H3N8 whole entry): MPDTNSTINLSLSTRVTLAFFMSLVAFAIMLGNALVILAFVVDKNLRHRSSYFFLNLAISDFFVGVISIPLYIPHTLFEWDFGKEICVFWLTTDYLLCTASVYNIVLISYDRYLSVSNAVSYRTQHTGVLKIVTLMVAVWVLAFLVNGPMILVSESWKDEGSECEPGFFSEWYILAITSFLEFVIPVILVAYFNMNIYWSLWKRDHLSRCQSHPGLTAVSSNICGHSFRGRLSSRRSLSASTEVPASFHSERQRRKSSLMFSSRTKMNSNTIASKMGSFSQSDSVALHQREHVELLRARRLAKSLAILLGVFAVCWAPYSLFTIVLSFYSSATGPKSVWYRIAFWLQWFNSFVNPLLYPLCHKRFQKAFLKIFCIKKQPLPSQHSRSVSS
# Description: Fluorescence Imaging Plate Reader (FLIPR®) technology was employed as a means to detect activation of PFI-013 by histamine or histamine agonists in a cell-based assay.
# 5×10^6 Human Embryonic Kidney (HEK) 293 cells expressing the mouse Gα15 gene (from here on called ‘293 cells’), were transiently transfected with 7.5 μg of PFI-013 (contained within the pcDNA4HISmaxB (Invitrogen) plasmid) vector, or vector alone, using Lipofectamine Plus® reagent (Gibco BRL) as per the manufacturer's protocol. The PFI-013 cDNA had been cloned into pcDNA4HISmaxB using restriction sites KpnI and NotI to excise the PFI-013 cDNA from pcDNA3.1/V5-His-TOPO and to insert the cDNA into pcDNA4HISmaxB using standard molecular biology techniques (e.g. according to Sambrook, et al., eds. (1989) Molecular Cloning: A Laboratory Manual, Cold Spring Harbor Laboratory Press, New York, N.Y., USA) and using T4 DNA ligase to join the fragments; pcDNA4HISmaxB was used as it contains elements that up-regulate the level of gene transcription over standard pcDNA3.1 vectors). 24 hrs post-transfection, the cells were detached from the flask using Trypsin/EDTA solution (LTI) and seeded into a black sided, Poly-D-lysine-treated, 96-well plate (Becton Dickinson) at 5×10^4 cells/well density. The plates were left overnight to allow the cells to adhere to the bottom of the wells. The medium was removed from the cells and replaced with 100 μl warm (37° C.) dye loading solution (50 μg Fluo3 (Molecular probes) in 20 μl DMSO+20% pluronic acid in DMSO, added to 11 ml Dulbecco's Modified Eagles Medium containing 1×Probenecid (100×Probenecid—0.71 g Probenecid was dissolved in 5 ml 1M NaOH and 5 ml Dulbeccos' Phosphate Buffered Saline (PBS), per plate; Probenecid (Molecular Devices) inhibits activity of the anion transport protein, thus improving dye loading). The plates were then incubated for 1 hr at 37° C. Plates were subsequently washed with 250 μl of wash buffer per well (5 ml 100×Probenecid stock+495 ml PBS, pH 7.4) 4 times. The plates were returned to the 37° C./5% CO2 incubator for 30 mins prior to processing within the FLIPR® instrument. The FLIPR® processing involved reading the fluorescence for all samples for 2 minutes; during this time the fluorescence baseline was determined for 10 seconds. The desired amount of compound (i.e. histamine or histamine agonists) was then automatically transferred to the wells and the fluorescence was continuously monitored for the remainder of the time. All compounds were diluted in wash buffer.
# Using methodology as described in detail above, the effect of histamine on the functional activation of PFI-013 was investigated.
# Using methodology as described in detail above, the effect of histaminergic compounds on the functional activation of PFI-013 was investigated.
# FIG. 8 depicts the action of various histaminergic compounds (columns 2 to 10) serially diluted from […] (rows A and B) down to 0.5 μM in duplicate (rows G and H), on PFI-013-transfected 293 cells (FIG. 8A) or vector-only transfected 293 cells (FIG. 8B). Remaining wells contained buffer only with no compound.
# [2] = tested on: isolated human eosinophils; test: Human eosinophil chemotaxis assay (Boyden chamber) with histamine receptor subtype-selective agonists; assay type: cell-based; settings: in vitro, agonist in bottom wells, 45 minutes, FIG. 9
# Description: (§1) Eosinophils were isolated from peripheral blood as previously described (Hansel, T T., De Vries I J., Iff T., Rihs S., Wandzilak M., Betz S., Blaser K. and Walker C. (1991). An improved immunomagnetic procedure for the isolation of highly purified human blood eosinophils. J. Imm. Meth. 145:105-10). Chemotaxis was measured using a 48-well Boyden chamber (Neuro Probe Inc., Cabin John, Md., USA). Agonists were diluted in RPMI media (BioWhittaker, Walkersville, Md., USA) containing 0.1% bovine serum albumin (BSA) (Gibco BRL, Gaithersburg, Md., USA) and added to the bottom wells of the chemotaxis chamber. A 5 µm PVP-free polycarbonate filter was used to separate the wells of the chamber (Neuro Probe Inc., Cabin John, Md., USA). Eosinophils were resuspended in RPMI/BSA media at a concentration of 2.5×10^6 cells per ml. 50 µl of this cell suspension were then added to the upper chamber. Chambers were incubated for 45 minutes in a 5% CO2-humidified atmosphere at 37° C. After the incubation period, the filters were removed, the top side was scraped to remove non-migrating cells, and the filters were stained with Diff-Quik stain (Dade Behring AG, Dudingen, Switzerland). The number of cells migrating (bottom of filter) were counted by light microscopy. The mean of three high-powered fields was then determined. The number of migrating cells was calculated by subtracting […]. All compounds were purchased from Sigma-RBI.
# Experiments were performed to characterise the histamine receptor subtype involved in the eosinophil chemotactic response to histamine. Methodology was as detailed above. […] Eotaxin was included as a positive control for eosinophil chemotaxis.
# PFI-013 [3] = target: T1, PFI-013; settings: 3H-histamine 0.72-1500 nM; difference between PFI-013-transfected and mock-transfected CHO-K1 membranes; preliminary data, FIG. 6
# [4] = tested on: isolated human eosinophils; test: Inhibition of histamine-induced chemotaxis of IL-5-primed human eosinophils; assay type: cell-based; settings: for IC50: Homo sapiens, Eosinophil, histamine 30 nM as agonist, antagonists at 10, 1 and 0.1 μM, preliminary results, FIG. 10C, read-out: IC50 for antagonising histamine-induced chemotaxis of human eosinophils; for reduction of the chemotactic response of isolated human eosinophils to histamine dihydrochloride: antagonists at a single concentration of 10 μM, IL-5-primed eosinophils, FIG. 10B
# Description: as §1
# Antagonist experiments were performed to further characterise the histamine receptor subtype involved in the eosinophil chemotactic response to histamine. […] Antagonists were used at a single concentration of 10 μM. Antagonists tested were: mepyramine maleate (histamine H1 antagonist), cimetidine (histamine H2 antagonist), thioperamide (histamine H3 antagonist) and clobenpropit (histamine H3 antagonist).
# A further experiment was performed to determine the IC50 of both thioperamide and clobenpropit (histamine H3 antagonists) for inhibiting isolated human eosinophil in vitro chemotaxis. Methodology was as above, using thioperamide and clobenpropit at 10 μM, 1 μM and 0.1 μM concentrations (Histamine, as the agonist, was used at 30 nM).
# [5] = tested on: isolated human eosinophils; settings: described by Raible et al. (1994); cited from earlier work
Molecule,activation of PFI-013 by histaminergic compounds (PFI-013 [1]),chemotactic response of isolated human eosinophils [2],other results
CN(C)CCCSC(=N)N [Dimaprit],no activation of PFI-013 could be detected,displayed no chemotactic activity,–
"CC(CCCCC(=O)Nc1ccc(C(F)(F)F)cc1)NCCc1cnc[nH]1.O=C(O)/C=C\C(=O)O.O=C(O)/C=C\C(=O)O (stereo not shown) [HTMT, HTMT dimaleate]",–,very weak chemotactic response only at the highest concentration tested (1 μM),–
NCCc1c[nH]cn1 [histamine],activated,–,"activation of PFI-013 by histamine (transient increase in intracellular calcium) (PFI-013 [1]; at the 10 μM concentration, tested 10 μM serially diluted in log steps down to 10 pM, versus vector-only cells, FIG. 7): specific activation of PFI-013; binding of histamine to PFI-013 (PFI-013 [3]): binds to PFI-013, albeit with relatively low affinity"
CNCCc1cnc[nH]1 [N-α-methyl histamine],activated,–,–
N=C(N)SCCc1cnc[nH]1 [Imetit],no activation of PFI-013 could be detected,displayed no chemotactic activity,–
S=C(NC1CCCCC1)N1CCC(c2cnc[nH]2)CC1 [thioperamide],–,–,IC50 [4]: 0.83 µM; reduction of the chemotactic response of isolated human eosinophils to histamine dihydrochloride [4]: greatest effect on the reduction of the chemotactic response
Cl.Cl.NCCc1c[nH]cn1 [histamine dihydrochloride],–,induced a significant chemotactic response,–
Cn1cnc(CCN)c1 [histamine-1-methyl],activated,–,–
C[C@@H](N)Cc1c[nH]cn1 [R-α-methyl histamine],activated,–,–
N[C@@H](Cc1c[nH]cn1)C(=O)O [L-histidine],no activation of PFI-013 could be detected,–,–
CNC(=S)NCCCCc1cnc[nH]1 [Burimamide],–,displayed no chemotactic activity,effect on intracellular Ca2+ production in isolated human eosinophils [5]: partial agonist effect
NC(=NCc1ccc(Cl)cc1)SCCCc1cnc[nH]1 [clobenpropit],no activation of PFI-013 could be detected,–,IC50 [4]: 1.5 µM; reduction of the chemotactic response of isolated human eosinophils to histamine dihydrochloride [4]: greatest effect on the reduction of the chemotactic response
COc1ccc2c(c1OC)C(=O)O[C@@H]2[C@H]1c2c(cc3c(c2OC)OCO3)CCN1C [noscapine],no activation of PFI-013 could be detected,–,–
"IL-5: interleukin-5, used to prime the eosinophils for chemotaxis studies",–,–,"effect of IL-5 priming of eosinophils on the chemotactic response to histamine ([4]; IL-5 pretreatment of the eosinophils, FIG. 10A): enhance the chemotactic response to histamine"
